Consider two compounds from US20230159449A1, “LIPID FORMULATIONS CONTAINING NUCLEIC ACIDS AND METHODS OF TREATMENT FOR CYSTIC FIBROSIS” (Arcturus Therapeutics, Inc., priority 2021, published 2023).

This experiment relates to FRT cells. In words: Transepithelial conductance (Gt) in Air-Liquid Interface culture of transfected FRT cells. It counts as cell-based, rat. The note with it: FRT cells transfected with 2099.1 or 1835.1; sequential Forskolin, VX770, Inh-172. As to the method: Further studies were conducted to assess the activity of hCFTR proteins expressed by selected mRNA constructs and whether these can properly open and close to allow proper ion transport. In these studies, an Air-Liquid Interface (ALI) cell culture model of FRT cells was used to transfect an unformulated subset of codon-optimized hCFTR mRNAs at different doses ranging from 0.5 μg-2 μg of mRNA (the 2 μg dose is not shown) into the FRT cells. ALI is a method of cell culture by which polarized cells are generated with their basal surfaces in contact with media, and the top of the cellular layer is exposed to the air. This model helps to mimic the cellular structure of in vivo airways. At 24 hours post-transfection, transepithelial conductance (Gt) of the cells over time was measured as an indicator of CFTR activity. Initially, Gt was measured with the transfected or control cells unperturbed. Then, a sequential process of CFTR activation (channel opening), enhancement (gating promotion) and closing of the CFTR channels was performed. The hCFTR constructs used in this study were 1835.1 (SEQ ID NO: 53), 2093.1 (SEQ ID NO: 66), 2095.1 (SEQ ID NO: 68), 2096.1 (SEQ ID NO: 69), and 2099.1 (SEQ ID NO: 72). In addition, controls were performed using a reference sequence of construct 764.1 (SEQ ID NO: 47) and untransfected cells. […]

For the compound `CC(C)(C)c1cc(C(C)(C)C)c(NC(=O)c2c[nH]c3ccccc3c2=O)cc1O` [VX770, reference compound], the “change in Gt on introduction of the agent” value is listed as “second increase in Gt”. Take `O=C(O)c1ccc(C=C2SC(=S)N(c3cccc(C(F)(F)F)c3)C2=O)cc1` [Inh-172, reference compound]: the “change in Gt on introduction of the agent” value is given as “decline in Gt”.
